Tests used:
Type in all cases: in vivo
Chenopodium album [1] = assay: Test Example 1 upland field foliage treatment; conditions: Table 4, upland field foliage treatment, index 0-5
How it was run: (§1)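 Scores are visual 0–5 ratings of herbicidal effect or crop injury (0: under 10%; 5: 90% or more) taken 21 days after treatment. Plants grew from seed in upland soil for 14 days, then foliage received the compound as a water-diluted wettable powder at 1 kg/ha active ingredient.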

Digitaria adscendens [2] = assay: Test Example 1 upland field foliage treatment; conditions: Table 4, upland field foliage treatment, index 0-5
How it was run: as §1

Setaria viridis [3] = assay: Test Example 1 upland field foliage treatment; conditions: Table 4, upland field foliage treatment, index 0-5
How it was run: as §1

Stellaria media [4] = assay: Test Example 1 upland field foliage treatment; conditions: Table 4, upland field foliage treatment, index 0-5
How it was run: as §1

soybean (Glycine max) [5] = assay: Test Example 1 upland field foliage treatment, crop phytotoxicity; conditions: Table 4, upland field foliage treatment, index 0-5
How it was run: as §1

[6] = test system: wheat (Triticum aestivum); assay: as above; conditions: Table 4, upland field foliage treatment, index 0-5
How it was run: as §1

Chenopodium album [7] = assay: Test Example 2 upland soil treatment; conditions: Table 5, upland soil treatment, index 0-5
How it was run: (§2)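 Visual 0–5 grading of herbicidal effect or phytotoxicity, made 21 days after a single pre-emergence soil-surface application at 1 kg a.i./ha.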

Digitaria adscendens [8] = assay: Test Example 2 upland soil treatment; conditions: Table 5, upland soil treatment, index 0-5
How it was run: as §2

Setaria viridis [9] = assay: Test Example 2 upland soil treatment; conditions: Table 5, upland soil treatment, index 0-5
How it was run: as §2

Stellaria media [10] = assay: Test Example 2 upland soil treatment; conditions: Table 5, upland soil treatment, index 0-5
How it was run: as §2

soybean (Glycine max) [11] = assay: Test Example 2 upland soil treatment, crop phytotoxicity; conditions: Table 5, upland soil treatment, index 0-5
How it was run: as §2

[12] = test system: wheat (Triticum aestivum); assay: as above; conditions: Table 5, upland soil treatment, index 0-5
How it was run: as §2

Ammannia multiflora = assay: Test Example 3 paddy field treatment; conditions: paddy field treatment, wettable powder, active ingredient 1 kg per hectare, 21st day after the dropping, index 0-5
How it was run: (§3)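 Weed seeds sown in puddled paddy soil under 4 cm water, with two-leaf Koshihikari rice transplanted; 10 days later a wettable powder was applied to the water surface at 1 kg active ingredient/ha. Scored 21 days after application on a 0–5 scale (0 = <10%, 5 = ≥90% herbicidal effect or phytotoxicity).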

Echinochloa crusgalli = assay: Test Example 3 paddy field treatment; conditions: paddy field treatment, wettable powder, active ingredient 1 kg per hectare, 21st day after the dropping, index 0-5
How it was run: as §3

Monochoria vaginalis = assay: Test Example 3 paddy field treatment; conditions: paddy field treatment, wettable powder, active ingredient 1 kg per hectare, 21st day after the dropping, index 0-5
How it was run: as §3

Scirpus juncoides = assay: Test Example 3 paddy field treatment; conditions: paddy field treatment, wettable powder, active ingredient 1 kg per hectare, 21st day after the dropping, index 0-5
How it was run: as §3

Rice (Oryza sativa) = assay: Test Example 3 paddy field treatment, crop phytotoxicity; conditions: paddy field treatment, transplanted rice Koshihikari, wettable powder, active ingredient 1 kg per hectare, 21st day after the dropping, index 0-5
How it was run: as §3

Row | Compound | Herbicidal activity CA: Chenopodium album (Chenopodium album [1]) | Herbicidal activity DA: Digitaria adscendens (Digitaria adscendens [2]) | Herbicidal activity SV: Setaria viridis (Setaria viridis [3]) | Herbicidal activity SM: Stellaria media (Stellaria media [4]) | Herbicidal activity (phytotoxicity) GM: Soybean (Glycine max) (soybean (Glycine max) [5]) | Herbicidal activity (phytotoxicity) TA: Wheat (Triticum aestivum) [6] | Herbicidal activity CA: Chenopodium album (Chenopodium album [7]) | Herbicidal activity DA: Digitaria adscendens (Digitaria adscendens [8]) | Herbicidal activity SV: Setaria viridis (Setaria viridis [9]) | Herbicidal activity SM: Stellaria media (Stellaria media [10]) | Herbicidal activity (phytotoxicity) GM: Soybean (Glycine max) (soybean (Glycine max) [11]) | Herbicidal activity (phytotoxicity) TA: Wheat (Triticum aestivum) [12] | Herbicidal activity AM (Ammannia multiflora) | Herbicidal activity EC (Echinochloa crusgalli) | Herbicidal activity MV (Monochoria vaginalis) | Herbicidal activity SJ (Scirpus juncoides) | Herbicidal activity OS (phytotoxicity to rice) (Rice (Oryza sativa))
1 | CON=C(Cn1cc(C)c(-c2ccccc2)n1)C(=O)NC(C)C [Compound 20] | 5 (herbicidal effect of not less than 90%, or phytotoxicity of 90% or more) | 3 (herbicidal effect of not less than 50% and less than 70%, or phytotoxicity of 50% or more and less than 70%) | 2 (herbicidal effect of not less than 30% and less than 50%, or phytotoxicity of 30% or more and less than 50%) | 5 (herbicidal effect of not less than 90%, or phytotoxicity of 90% or more) | 0 (herbicidal effect of not less than 0% and less than 10%, or phytotoxicity of 0% or more and less than 10%) | 0 (herbicidal effect of not less than 0% and less than 10%, or phytotoxicity of 0% or more and less than 10%) | 3 (herbicidal effect of not less than 50% and less than 70%, or phytotoxicity of 50% or more and less than 70%) | 4 (herbicidal effect of not less than 70% and less than 90%, or phytotoxicity of 70% or more and less than 90%) | 3 (herbicidal effect of not less than 50% and less than 70%, or phytotoxicity of 50% or more and less than 70%) | 4 (herbicidal effect of not less than 70% and less than 90%, or phytotoxicity of 70% or more and less than 90%) | 0 (herbicidal effect of not less than 0% and less than 10%, or phytotoxicity of 0% or more and less than 10%) | 0 (herbicidal effect of not less than 0% and less than 10%, or phytotoxicity of 0% or more and less than 10%) | 4 (herbicidal effect of not less than 70% and less than 90%, or phytotoxicity of 70% or more and less than 90%) | 5 (herbicidal effect of not less than 90%, or phytotoxicity of 90% or more) | 5 (herbicidal effect of not less than 90%, or phytotoxicity of 90% or more) | 4 (herbicidal effect of not less than 70% and less than 90%, or phytotoxicity of 70% or more and less than 90%) | 0 (herbicidal effect of not less than 0% and less than 10%, or phytotoxicity of 0% or more and less than 10%)
2 | CON=C(Cn1cc(C)c(-c2ccccc2)n1)C(=O)NC1CC1 [Compound 21, 2-methoxyimino-3-(phenyl-4-methyl-pyrazole)-1-yl-propanoic acid-N-cyclopropylamide] | 5 (herbicidal effect of not less than 90%, or phytotoxicity of 90% or more) | 5 (herbicidal effect of not less than 90%, or phytotoxicity of 90% or more) | 5 (herbicidal effect of not less than 90%, or phytotoxicity of 90% or more) | 5 (herbicidal effect of not less than 90%, or phytotoxicity of 90% or more) | 0 (herbicidal effect of not less than 0% and less than 10%, or phytotoxicity of 0% or more and less than 10%) | 0 (herbicidal effect of not less than 0% and less than 10%, or phytotoxicity of 0% or more and less than 10%) | 5 (herbicidal effect of not less than 90%, or phytotoxicity of 90% or more) | 4 (herbicidal effect of not less than 70% and less than 90%, or phytotoxicity of 70% or more and less than 90%) | 4 (herbicidal effect of not less than 70% and less than 90%, or phytotoxicity of 70% or more and less than 90%) | 5 (herbicidal effect of not less than 90%, or phytotoxicity of 90% or more) | 0 (herbicidal effect of not less than 0% and less than 10%, or phytotoxicity of 0% or more and less than 10%) | 0 (herbicidal effect of not less than 0% and less than 10%, or phytotoxicity of 0% or more and less than 10%) | 5 (herbicidal effect of not less than 90%, or phytotoxicity of 90% or more) | 5 (herbicidal effect of not less than 90%, or phytotoxicity of 90% or more) | 5 (herbicidal effect of not less than 90%, or phytotoxicity of 90% or more) | 5 (herbicidal effect of not less than 90%, or phytotoxicity of 90% or more) | 0 (herbicidal effect of not less than 0% and less than 10%, or phytotoxicity of 0% or more and less than 10%)
3 | CON=C(Cn1cc(C)c(-c2ccccc2)n1)C(=O)NC1CCCC1 [Compound 23] | 4 (herbicidal effect of not less than 70% and less than 90%, or phytotoxicity of 70% or more and less than 90%) | 3 (herbicidal effect of not less than 50% and less than 70%, or phytotoxicity of 50% or more and less than 70%) | 3 (herbicidal effect of not less than 50% and less than 70%, or phytotoxicity of 50% or more and less than 70%) | 4 (herbicidal effect of not less than 70% and less than 90%, or phytotoxicity of 70% or more and less than 90%) | 0 (herbicidal effect of not less than 0% and less than 10%, or phytotoxicity of 0% or more and less than 10%) | 0 (herbicidal effect of not less than 0% and less than 10%, or phytotoxicity of 0% or more and less than 10%) | 5 (herbicidal effect of not less than 90%, or phytotoxicity of 90% or more) | 4 (herbicidal effect of not less than 70% and less than 90%, or phytotoxicity of 70% or more and less than 90%) | 4 (herbicidal effect of not less than 70% and less than 90%, or phytotoxicity of 70% or more and less than 90%) | 4 (herbicidal effect of not less than 70% and less than 90%, or phytotoxicity of 70% or more and less than 90%) | 0 (herbicidal effect of not less than 0% and less than 10%, or phytotoxicity of 0% or more and less than 10%) | 0 (herbicidal effect of not less than 0% and less than 10%, or phytotoxicity of 0% or more and less than 10%) | 5 (herbicidal effect of not less than 90%, or phytotoxicity of 90% or more) | 4 (herbicidal effect of not less than 70% and less than 90%, or phytotoxicity of 70% or more and less than 90%) | 5 (herbicidal effect of not less than 90%, or phytotoxicity of 90% or more) | 4 (herbicidal effect of not less than 70% and less than 90%, or phytotoxicity of 70% or more and less than 90%) | 0 (herbicidal effect of not less than 0% and less than 10%, or phytotoxicity of 0% or more and less than 10%)
